Data as given in BindingDB's records for doi:10.1021/jm950640q (Sankyo, 1997).
pIC50: −log10 of the molar value. One block for each compound: values may come before it.

Assay: Inhibiting Platelet activating factor receptor by radioreceptor binding assay using rabbit platelets and [3H]-PAF

SMILES: C/C1=C\CC[C@@]2(C)O[C@@H]2C(=O)[C@@H]2CC[C@@H](C)[C@](C)(CC1)[C@H]2CO [(E)-(1R,3S,5R,12S,13R,16S)-16-Hydroxymethyl-5,9,12,13-tetramethyl-4-oxa-tricyclo[10.3.1.0*3,5*]hexadec-8-en-2-one]
pIC50: 5.89

SMILES: CC(=O)OC[C@H]1[C@H]2CC[C@@H](C)[C@]1(C)CC/C(C)=C/CC[C@@]1(C)O[C@@H]1C2=O [Acetic acid (E)-(1R,3S,5R,12S,13R,16S)-5,9,12,13-tetramethyl-2-oxo-4-oxa-tricyclo[10.3.1.0*3,5*]hexadec-8-en-16-ylmethyl ester]
pIC50: 6.39

SMILES: C/C1=C\CC[C@@]2(C)O[C@@H]2C(=O)[C@@H]2CC[C@@H](C)[C@](C)(CC1)[C@H]2COC(=O)Oc1ccccc1 [Carbonic acid phenyl ester (E)-(1R,3S,5R,12S,13R,16S)-5,9,12,13-tetramethyl-2-oxo-4-oxa-tricyclo[10.3.1.0*3,5*]hexadec-8-en-16-ylmethyl ester]
pIC50: 6.26

SMILES: C/C1=C\CC[C@@]2(C)O[C@@H]2[C@H](O)[C@@H]2CC[C@@H](C)[C@](C)(CC1)[C@H]2COC(=O)N(C)C [Dimethyl-carbamic acid (E)-(1R,2R,3R,5R,12S,13R,16S)-2-hydroxy-5,9,12,13-tetramethyl-4-oxa-tricyclo[10.3.1.0*3,5*]hexadec-8-en-16-ylmethyl ester]
pIC50: 6.74

SMILES: C/C1=C\CC[C@@]2(C)O[C@@H]2C(=O)[C@@H]2CC[C@@H](C)[C@](C)(CC1)[C@H]2COC(=O)N(C)C [Dimethyl-carbamic acid (E)-(1R,3S,5R,12S,13R,16S)-5,9,12,13-tetramethyl-2-oxo-4-oxa-tricyclo[10.3.1.0*3,5*]hexadec-8-en-16-ylmethyl ester]
pIC50: 6.74

SMILES: CCC(=O)OC[C@H]1[C@H]2CC[C@@H](C)[C@]1(C)CC/C(C)=C/CC[C@@]1(C)O[C@@H]1[C@@H]2O [Propionic acid (E)-(1R,2R,3R,5R,12S,13R,16S)-2-hydroxy-5,9,12,13-tetramethyl-4-oxa-tricyclo[10.3.1.0*3,5*]hexadec-8-en-16-ylmethyl ester]
pIC50: 6.47

The next compounds have a higher pIC50 than those just listed; values first:

pIC50: 6.92
SMILES: C/C1=C\CC[C@@]2(C)O[C@@H]2C(=O)[C@@H]2CC[C@@H](C)[C@](C)(CC1)[C@H]2C=O [(E)-(1R,3S,5R,12S,13R,16S)-5,9,12,13-Tetramethyl-2-oxo-4-oxa-tricyclo[10.3.1.0*3,5*]hexadec-8-ene-16-carbaldehyde]

pIC50: 7.30
SMILES: C/C1=C\CC[C@@]2(C)O[C@@H]2C(=O)[C@@H]2CC[C@@H](C)[C@](C)(CC1)[C@H]2COc1ccon1 [(E)-(1R,3S,5R,12S,13R,16S)-16-(Isoxazol-3-yloxymethyl)-5,9,12,13-tetramethyl-4-oxa-tricyclo[10.3.1.0*3,5*]hexadec-8-en-2-one]

pIC50: 7.10
SMILES: CC(=O)OC[C@H]1[C@H]2CC[C@@H](C)[C@]1(C)CC/C(C)=C/CC[C@@]1(C)O[C@@H]1[C@@H]2O [Acetic acid (E)-(1R,2R,3R,5R,12S,13R,16S)-2-hydroxy-5,9,12,13-tetramethyl-4-oxa-tricyclo[10.3.1.0*3,5*]hexadec-8-en-16-ylmethyl ester]

pIC50: 6.89
SMILES: COC(=O)OC[C@H]1[C@H]2CC[C@@H](C)[C@]1(C)CC/C(C)=C/CC[C@@]1(C)O[C@@H]1[C@@H]2O [Carbonic acid (E)-(1R,2R,3R,5R,12S,13R,16S)-2-hydroxy-5,9,12,13-tetramethyl-4-oxa-tricyclo[10.3.1.0*3,5*]hexadec-8-en-16-ylmethyl ester methyl ester]

pIC50: 7.59
SMILES: COC(=O)OC[C@H]1[C@H]2CC[C@@H](C)[C@]1(C)CC/C(C)=C/CC[C@@]1(C)O[C@@H]1C2=O [Carbonic acid methyl ester (E)-(1R,3S,5R,12S,13R,16S)-5,9,12,13-tetramethyl-2-oxo-4-oxa-tricyclo[10.3.1.0*3,5*]hexadec-8-en-16-ylmethyl ester]
